Entries after “also recorded” stand apart in the source; their conditions may differ. Where only a bound is given, the exact number is not on record here.

The test system of one experiment is SCN5A. Put plainly: qPCR mRNA expression. In kind it is cell-based, rat. Here is the method: (§1) Cell Treatment: Isolated adult rat cardiac myocytes were treated with FCM or TGF-β1 (R and D systems, Minneapolis, Minn.) for 3 days in serum free medium. For PI3K pathway inhibition cells were pretreated (30 min) with 10 μM […] (Cayman Chemicals, Ann Arbor) before the treatment with TGF-β1. mRNA analysis by quantitative PCR (qPCR): Cardiac myocytes were washed with PBS and lysed with lysis buffer. RNA was isolated from the myocardial tissue using RNAeasy kit from Qiagen (Qiagen, Valencia, Calif.) according to the manufacturer's instructions. Isolated RNA from these samples was treated with DNase for 15 min at room temperature (Qiagen, Valencia, Calif.). 100 ng of DNA-free total poly-A tail RNA (mRNA) was first subjected to synthesis of cDNA using Oligo dT primers applying SuperScript III First-Strand Synthesis System from Invitrogen (Invitrogen, Carlsbad, Calif.) according to the manufacturer's instructions. cDNA from 20 ng of total RNA was then subjected to real-time RT-PCR using predesigned taqman probe primers specific for rat Scn5a (Rn00565502), Kcnip2 (Kchip2; Rn01411451) and kcnd2 (Rn01456260) (Applied Biosystems, California). No-template controls and no-RT controls were run during each experiment to detect any RNA and/or DNA contamination. Results are expressed as fold expression of gene of interest normalized to GAPDH expression in the sample. Western blotting: Control and treated cardiac myocytes were washed in cold PBS, lysed directly in the modified loading buffer (25 mmol/l Tris.HCl; 150 mmol/l NaCl; 1 mmol/l EDTA; 4 mmol/l NaF; 2 mmol/l Sodium ortho-vanadate; 1% Triton X-100, protease inhibitor, 5% glycerol, 1% SDS, 0.05% bromophenol blue, 5% β mercaptoethanol) and sonicated. The lysate (20 μl) were then subjected SDS-PAGE as described earlier. The blots were incubated with rabbit pFOXO1 antibody, 1:500 (Cell Signaling) or rabbit GAPDH antibody, 1:5000 (Sigma-Aldrich, St. Louis, Mo.). Patch-clamp experiments: Whole-cell ionic currents were recorded from adult rat ventricular myocytes. All recordings were conducted at room temperature. Sodium current recordings were conducted in a low-sodium extracellular solution containing (in mM): NaCl, 10; MgCl2, 1; CaCl2, 1.8; CdCl2, 0.1; HEPES, 20; CsCl, 127.5; glucose, 11. The pipette solution contained (in mM): NaCl, 5; CsF, 135; EGTA, 10; MgATP, 5; HEPES, 5. To characterize the voltage dependence of the peak INa, single cells were held at −120 mV, and 200 msec voltage steps were applied from −90 to +30 mV in 5 mV increments. The interval between voltage steps was 3 sec. Voltage-dependence of inactivation was assessed by holding cells at various potentials from −160 to −40 mV followed by a 30 msec test pulse to −40 mV to elicit INa. […]
For orientation: Quantitative PCR measures a nucleic acid by following its amplification.

The subject of a further experiment is FOXO1. Put plainly: Western blot of FOXO1 phosphorylation. It is filed as cell-based, rat. The procedure: as §1, with “The blots were incubated with rabbit pFOXO1 antibody, 1:500 (Cell Signaling) or rabbit GAPDH antibody, 1:5000 (Sigma-Aldrich, St. Louis, Mo.).” left out, “All recordings were conducted at room temperature. Sodium current recordings were conducted in a low-sodium extracellular solution containing (in mM): NaCl, 10; MgCl2, 1; CaCl2, 1.8; CdCl2, 0.1; HEPES, 20; CsCl, 127.5; glucose, 11. The pipette solution contained (in mM): NaCl, 5; CsF, 135; EGTA, 10; MgATP, 5; HEPES, 5. To characterize the voltage dependence of the peak INa, single cells were held at −120 mV, and 200 msec voltage steps were applied from −90 to +30 mV in 5 mV increments. The interval between voltage steps was 3 sec.” left out
(In general: A western blot detects proteins with antibodies after separation by electrophoresis.)

The test system of experiment [1] is adult sheep atrial fibroblasts. Put plainly: Wound healing (migration) assay. It is filed as cell-based. The settings on record: Gal-3 10 μg/ml, days 0-2. Here is the method: (§2) Wound healing experiments were performed to investigate if exogenous Gal-3 can increase myofibroblast migration in vitro (FIG. 3). Adult sheep atrial fibroblasts were cultured in 96-well plates until confluent. Before serum starvation, cells were stained with cell tracker dye and DAPI. A wound was created by scraping a semi-confluent monolayer of cells with a 1 ml pipette tip. Thereafter, cells underwent serum starvation in DMEM with 5% FBS for 6 hrs. Comparisons were made between untreated and Gal-3 treated (1 μg/ml or 10 μg ml) cells. The wound was imaged at 4 different locations at 3 different time points (days 0, 1 and 2). The size of the wound was quantified using the NIS element program by Nikon. […] Next, to investigate the effects of Gal-3 on myofibroblast proliferation, adult sheep atrial fibroblasts were treated with recombinant human Gal-3 (EMD chemicals, USA) for 24 hours in the presence of SFM. FM was included as a positive control. Cell proliferation was measured using cell proliferation reagent WST (Roche Diagnostics, USA). […] Such concentrations are in the same range used previously (Sharma et al., Circulation. 2004; 110:3121-3128) to investigate Gal-3 induced fibroblast proliferation in the cardiomyopathic heart.

The subject of experiment [2] is adult sheep atrial myofibroblasts. In words: Cell proliferation assay (WST reagent). As to conditions: Gal-3 1-30 μg/ml, 24 hours, SFM. In kind it is cell-based. The procedure:
as §2

Experiment [3] deals with adult rat ventricular myocytes. In words: Whole-cell patch clamp, peak inward sodium current (INa). In kind it is cell-based. Here is the method:
as §1
Background: The patch-clamp technique gives a direct electrical read-out from membranes.

Experiment [4] relates to adult rat ventricular myocytes. In words: Whole-cell patch clamp, transient outward potassium current (Ito). The settings on record: 72 hr. It is filed as cell-based. From the text:
The extracellular solution for transient outward potassium current (Ito) contained (in mM): 136 NaCl, 4 KCl, 1.8 CaCl2, 2 MgCl2, 10 HEPES, 0.03 tetrodotoxin, 0.01 nifedipine, and 14 glucose, pH 7.35. The pipette solution contained (in mM):135 KCl, 1 MgCl2, 10 EGTA, 10 HEPES, 5 glucose, pH 7.2. Voltage-gated outward K+ currents were evoked during 5-s depolarizing voltage steps to potentials between −40 and +60 mV from a holding potential of −70 mV; voltage steps were presented in 10 mV increments at 15 s intervals
(§3) In all experiments, cells were exposed to one of the following for 72 hrs prior to the experiment: control medium, FCM or TGF-β1.

Experiment [5] concerns adult rat ventricular myocytes. Put plainly: Current clamp action potential recording. In kind it is cell-based. The procedure:
Action potentials were recorded from individual myocytes using the current clamp mode of the MultiClamp 700B amplifier after gigaseal formation and patch break. Stimulus pulses (1-2 ms duration) were generated using a World Precision Instruments DS8000 stimulator (Sarasota, Fla.). The bath solution contained (in mM): NaCl: 148, KCl: 5.4, MgCl2: 1, CaCl2 1.8, NaH2PO4: 0.4, HEPES: 15, Glucose: 5.5, pH 7.4 with NaOH. The pipette solution contained (in mM), KCl: 20, K-aspartate: 90, KH2PO4: 10, EDTA: 5.0, K2ATP: 1.9, HEPES: 5.0 and Mg2+ 7.9; pH 7.2 (KOH)
as §3

The test system of the next experiment is KCND2. Put plainly: qPCR mRNA expression. In kind it is cell-based, rat. As to conditions: 1 ng/ml, 72 hr. Here is the method:
as §1

The next experiment has as its system KCNIP2. In words: qPCR mRNA expression. In kind it is cell-based, rat. The settings on record: 1 ng/ml, 72 hr. Here is the method:
as §1

`O=c1cc(N2CCOCC2)oc2c(-c3ccccc3)cccc12` [LY 29004, reference compound]: in the experiment on SCN5A (pretreated with PI3K inhibitor (10 μM, 30 min)), the “TGF-β1 induced increase in SCN5A transcription” value is recorded as “failed to show increased SCN5A transcription”. Also, the “phosphorylation of FOXO1 in TGF-β1 treated cells” value in the experiment with FOXO1 (pretreated with PI3K inhibitor) was “inhibited”.

As for “Gal-3: recombinant human Gal-3 (EMD chemicals, USA)”, in experiment [1], the “rate of migration / wound healing” value is “significantly increased the rate of migration and promoted wound healing; also recorded: increases the rate of wound healing”. Also, the “proliferation (number) of adult sheep atrial myofibroblasts” value in experiment [2] is “increased the number of adult sheep atrial myofibroblasts in a concentration-dependent manner; also recorded: increases proliferation”.

As for “TGF-β1: exogenous TGF-β1 cytokine (R and D systems, Minneapolis, Minn.)”, the “more inward current compared to control medium” value in [3] (1 ng/ml, at −40V (so in the source)) is “about 40%”. In experiment [3] (72 hours, 0.001-1.0 ng/ml), the “EC50 for increase of peak inward INa density” value was found to be 0.007 ng/mL. The “voltage dependence of activation (m∞) and inactivation (h∞)” value in experiment [3] (72 hr treatment) is given as “neither the m∞ nor the h∞ curve was modified”. In experiment [3] (at 1 ng/ml (also seen at 10 ng/ml), 72 hours), the “maximum INa increase” value was “about 40%”. For the same molecule, the “peak Ito” value in [4] (1 ng/ml) is “significantly reduced the peak Ito but to a much modest level”. Moreover, in experiment [4] (10 ng/ml, 60 mV), the Ito current density was 12.6±0.98 and the “Ito current density, % of control levels” value is listed as 57%. In [4] (10 ng/ml, +20 mV), the “reduction of Ito current density” value came out at 42%. In addition, in experiment [5] (10 ng/ml, BCL 1000 ms), the APD30 amounted to 29.1 ± 5.6 ms and the “APD30 times larger than control” value is > 3.5 times. The “APD / early afterdepolarizations” value in experiment [5] (50 ng/ml) is recorded as “APD was so prolonged that some cells early after depolarizations (EADs)”. In the experiment with KCND2, the “decrease of KCND2 expression with respect to control” value was found to be 50.6%. Besides, the “reduction of KCNIP2 mRNA levels” value in the experiment with KCNIP2 came to 77%. Moreover, the “SCN5A transcript levels, fold increase” value in the experiment with SCN5A (1 ng/ml, 72 hr) is 1.73±0.26 fold. Moreover, in the experiment with FOXO1 (1 ng/ml), the “increase in phosphorylated FOXO1 vs control” value is 67% and the “time of peak FOXO1 phosphorylation” value was found to be 15 min.

(Values after US20140241988A1, “METHODS AND COMPOSITIONS FOR TREATING ATRIAL FIBRILLATION” (The Regents of The University of Michigan, priority 2013, published 2014).)
